Source: patent US12162877B2, “Human dihydroorotate dehydrogenase (hDHODH) inhibitors and their use in targeting oncological diseases sensitive to pyrimidine starvation” (DRUG DISCOVERY AND CLINIC S.R.L., priority 2018, dated 2024)
Values after ≈ are worked out from the molar mass of the structure shown. Like-named read-outs stand apart in the source and are kept apart here. One block for each molecule: values may come before it.

How the values were obtained:
[1] = tested on: A2780 (ovarian cancer cells); assay: Cytotoxicity in human cancer cell lines, A2780; format: cell-based; conditions: A2780, 72 h
Excerpt: (§1) In the last phase of their study, the present inventors evaluated the effects of our hDHODH inhibitors on a series of human cancer cell lines.

[2] = tested on: HEPG2 (liver hepatocellular cancer cells); assay: Cytotoxicity in human cancer cell lines, HEPG2; format: cell-based
Excerpt: as §1

[3] = 24 h, pH 7.4
U937 [4] = assay: Differentiation assay, U937 (CD11b); format: cell-based, human
Experimental: (§2) Cell lines and drug treatment.
(§3) Flow cytometric analysis. The expression of CD11b (PE-conjugated BD Bioscience San Jose, CA, USA), and CD14 (FITC-conjugated Beckam Coulter CA, USA), cell surface molecules was determined by flow cytometry analysis. […] Samples were acquired on a FACS Calibur and dead cells were excluded from the analyses, according to the use of propidium iodide (Sigma-Aldrich, Milan, Italy). Data were processed using Kaluza software version 1.2 (Beckman Coulter Fullerton, CA).
(§4) Differentiation assay. 1×10^4 cells (THP1 and U937), were plated in 96 well round-bottom plates and DHODH inhibitors were added, from 0.1 μM to 10 μM, to a volume of 200 μl of medium. The differentiation kinetics was monitored from day 1 to day 4 for U937, and to day 5 for THP1. Cells were washed and either stained with CD11b (U937), or with CD11b and CD14 (THP1), as described above. The differentiation assay was also performed in the presence of uridine 100 μM and analyzed on day 3

Serum stability = format: in vitro ADME; conditions: 37° C.
[5] = tested on: MDA MB231 (breast cancer cells); assay: Cytotoxicity in human cancer cell lines, MDA MB231; format: cell-based; conditions: MDA-MB-231, MDA MB231, 72 h
Excerpt: as §1

Jurkat T cells [6] = assay: Proliferation assay, Jurkat T cells (Hoechst 33258 DNA content); format: cell-based; conditions: 72 h
[7] = Protein binding in vitro (ultrafiltration); format: in vitro ADME; conditions: human serum protein binding
THP1 [8] = assay: CFSE-based cytotoxic activity assay, THP1; format: cell-based; conditions: THP1, 0.01-10 μM, 3 days, FIG. 5A
[9] = tested on: HCT-116 (colon cancer cells); assay: Cytotoxicity in human cancer cell lines, HCT-116; format: cell-based; conditions: HCT-116, 72 h
Excerpt: as §1

PHA-stimulated PBMC [10] = assay: Immunosuppression assay, PHA-stimulated PBMC proliferation; format: cell-based
THP1 [11] = assay: Differentiation assay, THP1 (CD14); format: cell-based, human
Experimental: as §2, §3, §4

U937 [12] = assay: CFSE-based cytotoxic activity assay, U937; format: cell-based; conditions: U937, 0.01-10 μM, 3 days, FIG. 5A
[13] = tested on: PANC-1 (pancreatic cancer cells); assay: Cytotoxicity in human cancer cell lines, PANC-1; format: cell-based; conditions: PANC-1, 72 h
Excerpt: as §1

recombinant hDHODH = recombinant hDHODH (Homo sapiens (Human), UniProt Q02127); assay: hDHODH inhibition assay (DCIP reduction); format: biochemical
Sequence of recombinant hDHODH (Q02127 31-395): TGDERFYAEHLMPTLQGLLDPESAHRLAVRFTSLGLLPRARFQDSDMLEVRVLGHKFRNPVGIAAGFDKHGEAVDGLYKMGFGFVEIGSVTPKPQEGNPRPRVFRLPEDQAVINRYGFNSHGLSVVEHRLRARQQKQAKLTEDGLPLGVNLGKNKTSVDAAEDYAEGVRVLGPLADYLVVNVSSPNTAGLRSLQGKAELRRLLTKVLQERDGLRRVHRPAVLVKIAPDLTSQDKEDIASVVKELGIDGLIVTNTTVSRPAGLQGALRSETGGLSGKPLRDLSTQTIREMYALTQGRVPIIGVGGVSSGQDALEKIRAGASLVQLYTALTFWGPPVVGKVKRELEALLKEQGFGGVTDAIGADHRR
Experimental: Protein expression and purification. […] The vector produces hDHODH as an N-terminal GST-fusion protein. The plasmid pFN2A-hDHODH was transformed into BL21 (DE3), pyrD E. coli cells for protein production. Cells were grown at 37° C. in LB medium supplemented with 0.1 mM flavin mononucleotide. […] Triton X-100 was added to the lysate, to a final concentration of 1%, before centrifugation at 14000×g for 40 min at 4° C. The clarified supernatant was incubated with DNase I (Sigma Aldrich), for 30 min at room temperature, supplemented with 2 mM DTT and filtered through a 0.45 μm syringe filter. The GST-fused enzyme was purified from the bacterial lysate using affinity chromatography on immobilized glutathione-sepharose columns and fast protein liquid chromatography (FPLC). The GST tag was not removed for further studies.
hDHODH inhibition assay. Inhibitory activity was assessed by monitoring the reduction of 2,6-dichloroindophenol (DCIP), which is associated with the oxidation of dihydroorotate as catalyzed by the DHODH enzyme. The enzyme was preincubated for five minutes at 37° C. in Tris-buffer solution (pH 8.0), with coenzyme Q10 (100 μM), with the compounds to be tested used at different concentrations (final DMSO concentration 0.1% v/v), with DCIP (50 μM). The reaction was initiated by the addition of DHO (500 μM), and the reduction was monitored at λ=650 nm. […] Values are means±SE of three independent experiments.

[14] = log D (pH 7.4) shake-flask; format: physicochemical; conditions: n-octanol/PBS
Jurkat T cells [15] = assay: Cytotoxicity assay, Jurkat T cells (CellTox green); format: cell-based; conditions: 72 h, concentration causing significant (≥30%) cytotoxic effect
PHA-stimulated PBMC [16] = conditions: inhibition of PHA-stimulated PBMC proliferation; value from ref. 29; read-out: Immunosuppression IC50 ± SE; cited from earlier work
[17] = with uridine, read-out: Cytotoxicity IC50 with Uridine
[18] = in vitro assay, means ± SE of three experiments, read-out: hDHODH IC50 ± SE
[19] = enzymatic assay, values in text, read-out: hDHODH IC50

SMILES: Cc1c(-c2ccc(-c3ccccc3F)cc2)nc2ccc(F)cc2c1C(=O)O [Brequinar, brequinar]
- IC50 ([1]; read-out: Cytotoxicity IC50): < 0.1 µM
- IC50 [1, 17]: 15.5 µM
- IC50 ([2]; HEPG2, 72 h, with uridine, read-out: Cytotoxicity IC50 with Uridine): > 10000 nM
- IC50 ([2]; HepG2, 72 h, read-out: Cytotoxicity IC50): 46 nM
- Solubility in PBS with 2% DMSO [3]: 449 µM
- myeloid differentiation, CD11b expression (U937 [4]; U937, FIG. 6A): strong differentiation
- differentiation when uridine is added (U937 [4]; U937, uridine 100 μM, day 3, FIG. 6C): reversed
- % compound after 24 h in human serum (Serum stability): 98%
- IC50 ([5]; read-out: Cytotoxicity IC50): 1300 nM
- IC50 [5, 17]: > 100000 nM
- IC50 (Jurkat T cells [6]; in the presence of 100 μM uridine, read-out: Proliferation IC50 ± SE + Uridine): 94.2 ± 2.08 µM
- IC50 (Jurkat T cells [6]; read-out: Proliferation IC50 ± SE): 0.91 ± 0.07 µM
- % bound [7]: 98.83%
- cytotoxicity (THP1 [8]): strong and concentration-dependent cytotoxicity
- IC50 ([9]; read-out: Cytotoxicity IC50): 97 nM
- IC50 [9, 17]: 3000 nM
- antiproliferative effect on PHA-activated PBMCs, times greater than teriflunomide (PHA-stimulated PBMC [10]): 10 times
- myeloid differentiation, CD14 expression (THP1 [11]; THP1, FIG. 6B): strong differentiation
- differentiation when uridine is added (THP1 [11]; THP1, uridine 100 μM, day 3, FIG. 6D): reversed
- cytotoxicity (U937 [12]): strong and concentration-dependent cytotoxicity
- IC50 ([13]; read-out: Cytotoxicity IC50): 280 nM
- IC50 [13, 17]: < 100 nM

SMILES: O=C(Nc1ccc(Oc2ccccc2)cc1)c1c(O)nn2ccccc12 [Compound 8, 2-Hydroxy-N-(4-phenoxyphenyl)pyrazolo[1,5-a]pyridine-3-carboxamide]
- IC50 (recombinant hDHODH; [19]): 760 nM
- IC50 (recombinant hDHODH; [18]): 760 ± 136 nM

SMILES: Cc1cc(NC(=O)c2c(O)nn3ccccc23)ccc1Oc1ccccc1 [Compound 9, 2-Hydroxy-N-(3-methyl-4-phenoxyphenyl)pyrazolo[1,5-a]pyridine-3-carboxamide]
- IC50 (recombinant hDHODH; [18]): 480 ± 31 nM

SMILES: Cc1cc(Oc2ccccc2)c(C)cc1NC(=O)c1c(O)nn2ccccc12 [Compound 10, N-(2,5-Dimethyl-4-phenoxyphenyl)-2-hydroxypyrazolo[1,5-a]pyridine-3-carboxamide]
- IC50 (recombinant hDHODH; [19]): 43 nM
- IC50 (recombinant hDHODH; [18]): 43 nM

SMILES: O=C(Nc1c(F)c(F)c(-c2ccccc2)c(F)c1F)c1c(O)nn2c1CCCC2 [Compound 30, 2-Hydroxy-N-(2,3,5,6-tetrafluoro-[1,1′-biphenyl]-4-yl)-4,5,6,7-tetrahydropyrazolo[1,5-a]pyridine-3-carboxamide]
- IC50 (recombinant hDHODH; [19]): 5.9 nM

SMILES: C/C(O)=C(\C#N)C(=O)Nc1ccc(C(F)(F)F)cc1 [Teriflunomide, teriflunomide]
- Cytotoxicity (effect ≥30%) (Jurkat T cells [15]): 53 ± 3 µM
- Solubility in PBS [3]: 2692 µM (≈ 727 µg/mL)
- IC50 (PHA-stimulated PBMC [16]): 54.3 µM

Results, then the molecule that gave them:

- IC50 (recombinant hDHODH; [18]): 45 ± 13 nM
SMILES: Cn1nc(O)c(C(=O)Nc2c(F)c(F)c(-c3ccccc3)c(F)c2F)n1 [Compound 2]

- times more potent than teriflunomide (hDHODH) (recombinant hDHODH; enzymatic assay, ratio of IC50): 320 times
SMILES: O=C(Nc1c(F)c(F)c(-c2ccccc2)c(F)c1F)c1c(O)nn2ccccc12 [Compound 4, 2-Hydroxy-N-(2,3,5,6-tetrafluoro-[1,1′-biphenyl]-4-yl)pyrazolo[1,5-a]pyridine-3-carboxamide]

- IC50 (recombinant hDHODH; [19]): 4.3 nM
SMILES: Cc1cccc2c(C(=O)Nc3c(F)c(F)c(-c4ccccc4)c(F)c3F)c(O)nn12 [Compound 5, 2-Hydroxy-7-methyl-N-(2,3,5,6-tetrafluoro-[1,1′-biphenyl]-4-yl)pyrazolo[1,5-a]pyridine-3-carboxamide]

- IC50 (recombinant hDHODH; [18]): > 5000 nM
SMILES: Cn1c(=O)c(C(=O)Nc2c(F)c(F)c(-c3ccccc3)c(F)c2F)c2ccccn21 [Compound 7, 1-Methyl-2-oxo-N-(2,3,5,6-tetrafluoro-[1,1′-biphenyl]-4-yl)-1,2-dihydropyrazolo[1,5-a]pyridine-3-carboxamide]

- IC50 (recombinant hDHODH; [19]): 2 nM
- logD [14]: > 3
SMILES: O=C(Nc1c(F)c(F)c(-c2cccc(F)c2)c(F)c1F)c1c(O)nn2ccccc12 [Compound 32, 2-Hydroxy-N-(2,3,3′,5,6-pentafluoro-[1,1′-biphenyl]-4-yl)pyrazolo[1,5-a]pyridine-3-carboxamide]

- IC50 (recombinant hDHODH; [19]): 2.3 nM
- logD [14]: > 3
SMILES: O=C(Nc1c(F)c(F)c(-c2cccc(C(F)(F)F)c2)c(F)c1F)c1c(O)nn2ccccc12 [Compound 33, 2-Hydroxy-N-(2,3,5,6-tetrafluoro-3′-(trifluoromethyl)-[1,1′-biphenyl]-4-yl)pyrazolo[1,5-a]pyridine-3-carboxamide]
